Test system: 874868-142-R-J2-PDC complex spheroids, growth % test/control
Assay: Anticancer human tumor 874868-142-R-J2-PDC patient-derived head and neck squamous carcinoma cell line growth inhibition [CLK]
Conditions: for IC50: curve of first compound; for viability, T/C: stronger effect = lower value
Procedure, shortened: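 Multi-cell-type spheroids combined patient-derived tumor cells with HUVEC endothelial cells and human mesenchymal stem cells. Paired agents were dosed in half-log steps down from about clinical Cmax, or from 10 microM where Cmax was unknown.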

[1] = second compound 0.0316 µM, first compound 0.0316 µM
[2] = second compound 0.0316 µM, first compound 0.1 µM
[3] = second compound 0.0316 µM, first compound 0.316 µM
[4] = second compound 0.0316 µM, first compound 1 µM
[5] = second compound 0.0316 µM, first compound 3.16 µM
[6] = second compound 0.0316 µM, first compound 10 µM
[7] = second compound 0.1 µM, first compound 0.0316 µM
[8] = second compound 0.1 µM, first compound 0.1 µM
[9] = second compound 0.1 µM, first compound 0.316 µM
[10] = second compound 0.1 µM, first compound 1 µM
[11] = second compound 0.1 µM, first compound 3.16 µM
[12] = second compound 0.1 µM, first compound 10 µM
[13] = second compound 0.316 µM, first compound 0.0316 µM
[14] = second compound 0.316 µM, first compound 0.1 µM
[15] = second compound 0.316 µM, first compound 0.316 µM
[16] = second compound 0.316 µM, first compound 1 µM
[17] = second compound 0.316 µM, first compound 3.16 µM
[18] = second compound 0.316 µM, first compound 10 µM
[19] = second compound 1 µM, first compound 0.0316 µM
[20] = second compound 1 µM, first compound 0.1 µM
[21] = second compound 1 µM, first compound 0.316 µM
[22] = second compound 1 µM, first compound 1 µM
[23] = second compound 1 µM, first compound 3.16 µM
[24] = second compound 1 µM, first compound 10 µM
[25] = second compound 3.16 µM, first compound 0.0316 µM
[26] = second compound 3.16 µM, first compound 0.1 µM
[27] = second compound 3.16 µM, first compound 0.316 µM
[28] = second compound 3.16 µM, first compound 1 µM
[29] = second compound 3.16 µM, first compound 3.16 µM
[30] = second compound 3.16 µM, first compound 10 µM
[31] = second compound 10 µM, first compound 0.0316 µM
[32] = second compound 10 µM, first compound 0.1 µM
[33] = second compound 10 µM, first compound 0.316 µM
[34] = second compound 10 µM, first compound 1 µM
[35] = second compound 10 µM, first compound 3.16 µM
[36] = second compound 10 µM, first compound 10 µM
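Note: spheroids exposed to the compounds for 7 days.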
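Throughout, for viability, T/C: 100% = DMSO vehicle control viability.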

SMILES: COc1ccc([C@@H](O)c2cc(-c3ncnc4cc(N5CCOCC5)ccc34)c(F)cc2Cl)nn1 + CNC(=O)c1ccc(Nc2nc(OC3CCCC3)c3c(-c4ccc5nc(C)oc5c4)c[nH]c3n2)c(OC)c1
- IC50 (second compound 0.0316 µM): 2.25 µM
- IC50 (second compound 0.1 µM): 3.71 µM
- IC50 (second compound 0.316 µM): 0.517 µM
- IC50 (second compound 1 µM): < 0.0316 µM
- IC50 (second compound 3.16 µM): < 0.0316 µM
- IC50 (second compound 10 µM): < 0.0316 µM
- viability, T/C [1]: 106%
- viability, T/C [2]: 100%
- viability, T/C [3]: 101%
- viability, T/C [4]: 64.5%
- viability, T/C [5]: 47.6%
- viability, T/C [6]: 31.7%
- viability, T/C [7]: 81.5%
- viability, T/C [8]: 89.7%
- viability, T/C [9]: 73.7%
- viability, T/C [10]: 67.5%
- viability, T/C [11]: 52.6%
- viability, T/C [12]: 36.9%
- viability, T/C [13]: 52.7%
- viability, T/C [14]: 60%
- viability, T/C [15]: 55.6%
- viability, T/C [16]: 40.5%
- viability, T/C [17]: 40.3%
- viability, T/C [18]: 23.4%
- viability, T/C [19]: 43.5%
- viability, T/C [20]: 46.5%
- viability, T/C [21]: 40%
- viability, T/C [22]: 29.7%
- viability, T/C [23]: 25.1%
- viability, T/C [24]: 23.1%
- viability, T/C [25]: 37.6%
- viability, T/C [26]: 38.9%
- viability, T/C [27]: 45.2%
- viability, T/C [28]: 32.9%
- viability, T/C [29]: 37%
- viability, T/C [30]: 23.5%
- viability, T/C [31]: 40.4%
- viability, T/C [32]: 38.6%
- viability, T/C [33]: 39.2%
- viability, T/C [34]: 28.6%
- viability, T/C [35]: 32.3%
- viability, T/C [36]: 18.6%

SMILES: COc1cccc2c1C(=O)c1c(O)c3c(c(O)c1C2=O)CC(O)(C(=O)CO)CC3OC1CC(N)C(O)C(C)O1 (centres undefined) + CNC(=O)c1ccc(Nc2nc(OC3CCCC3)c3c(-c4ccc5nc(C)oc5c4)c[nH]c3n2)c(OC)c1
- IC50 (second compound 0.0316 µM): 0.0739 µM
- IC50 (second compound 0.1 µM): 0.0856 µM
- IC50 (second compound 0.316 µM): 0.0472 µM
- IC50 (second compound 1 µM): < 0.0316 µM
- IC50 (second compound 3.16 µM): < 0.0316 µM
- IC50 (second compound 10 µM): < 0.0316 µM
- viability, T/C [1]: 65.8%
- viability, T/C [2]: 40.8%
- viability, T/C [3]: 29.2%
- viability, T/C [4]: 1.04%
- viability, T/C [5]: 0.15%
- viability, T/C [6]: 0.15%
- viability, T/C [7]: 66.7%
- viability, T/C [8]: 45.7%
- viability, T/C [9]: 23.5%
- viability, T/C [10]: 0.86%
- viability, T/C [11]: 0.16%
- viability, T/C [12]: 3.76%
- viability, T/C [13]: 55.9%
- viability, T/C [14]: 38.6%
- viability, T/C [15]: 16.9%
- viability, T/C [16]: 0.22%
- viability, T/C [17]: 0.17%
- viability, T/C [18]: 6.83%
- viability, T/C [19]: 32.1%
- viability, T/C [20]: 28.1%
- viability, T/C [21]: 17.6%
- viability, T/C [22]: 0.21%
- viability, T/C [23]: 1.61%
- viability, T/C [24]: 0.16%
- viability, T/C [25]: 33.2%
- viability, T/C [26]: 27.8%
- viability, T/C [27]: 13.3%
- viability, T/C [28]: 0.19%
- viability, T/C [29]: 1.44%
- viability, T/C [30]: 11.7%
- viability, T/C [31]: 28.5%
- viability, T/C [32]: 30.5%
- viability, T/C [33]: 15.8%
- viability, T/C [34]: 0.27%
- viability, T/C [35]: 3.05%
- viability, T/C [36]: 5.77%
